Laboratory results published in patent publication EP4644391A1, “NOVEL PHENYLQUINOLONE COMPOUND HAVING ANTIBACTERIAL AND ANTICANCER FUNCTIONS, AND PREPARATION THEREOF” (Alphamol Science Ltd (Shanghai), priority 2022, dated 2024).

What was measured:
Test in all cases: In vitro anticancer activity test (MTT cell proliferation assay)
Format in all cases: cell-based
Hela = conditions: Homo sapiens
Description: (§1) The anticancer activity of the compounds was tested using an in vitro cancer cell tests. The specific test method is as follows: • 1. Cell recovery and culture method: the cryovial was taken out from the liquid nitrogen container firstly, soaked directly in 37°C warm water, and shaked from time to time to let it thaw as soon as possible. Then, the cryovial was transferred to a clean bench, and the lid was open. The cell suspension was taken into a centrifuge tube using a rubber-tipped dropper and more than 10 times the culture medium was added, mixed well, and centrifuged at 50g for 5 minutes. Then, the supernatant was discarded, complete culture medium containing 10% fetal bovine serum was added to resuspend the cells, the cells was counted, the cell density was adjusted, and then inoculated into a culture bottle. The culture bottle was placed in a cell culture incubator at 5% CO2 and 37°C. The complete culture medium was replaced once the next day and the culture was continued. • 2. Cell passaging method: adherent cells in the logarithmic growth phase were placed in a clean bench, the original culture medium was discarded, and washed three times with 1×PBS. An appropriate amount of 0.25% trypsin digestion solution was added to moisten the cells, and then the trypsin solution was aspirated. The cells were placed in a cell culture incubator at 5% CO2 and 37°C for digestion for a suitable time, and observed under a microscope. When 90% of the cells become round, the cells were moved immediately to the clean bench and complete culture medium was added to terminate digestion. Then, the cells were dislodged by pipetting up and down with a rubber-tipped dropper to single cells. The cells were counted, and the cell density was adjusted. The cells were inoculated into a suitable culture bottle or dish, added enough complete culture medium, and placed in a cell culture incubator at 5% CO2 and 37°C for static culture. For suspension cells in the logarithmic phase, the original culture medium was directly centrifuged at 50g for 5 minutes, the supernatant was discarded, and the cells were washed once with PBS and centrifuged. After discarding the supernatant, the complete culture medium was added and the cells were dispersed using a rubber-tipped dropper. The cells are counted, and the cell density was adjusted. The cells were inoculated into appropriate culture bottles or culture dishes, and sufficient complete culture medium was added, and the cells were cultured in a cell culture incubator at 5% CO2 and 37°C. • 3. Cell proliferation assay: cells in good state in logarithmic phase were taken and appropriate amount of the cells was inoculated into 96-well plates according to the cell passage treatment method, with each well containing 180 µL complete medium. After the cells growth was recovered and the number of cells in each well is 5000±500, a drug was added for treatment. After drug treatment during the experimental time, MTT solution with a final concentration of 0.5 mg/mL was added to each well, and placed in a cell culture incubator at 5% CO2 and 37°C to allow a fully reaction of MTT with cells. After 4 hours, the solution in the 96-well plate was discarded, 100 µL of DMSO was added, and shaked to dissolve the formazan precipitated at the bottom of the plate, and the absorbance value of samples was detected at a wavelength of 570 nm using a microplate reader. Calculation method of cell viability rate: Viability rate = A sample group÷A control group × 100% [formula] • 4. Cell photography step: cells in good state in logarithmic phase were taken and an appropriate amount of cells was inoculated into 96-well plates according to the cell passage treatment method, with each well containing 180 µL complete medium. After the cells growth was recovered and the number of cells in each well is 5000 ± 500, a drug was added for treatment. […]

[1] = test system: human Burkitt's lymphoma cell Raji
Description: as §1

[2] = test system: human breast cancer cell MFM223; conditions: MFM-223
Description: as §1

[3] = test system: human colon cancer cell HCT 116
Description: as §1

[4] = test system: human gastric cancer cell MGC-803
Description: as §1

human glioma cell SNB-19 = test system: human glioma cell SNB-19
Description: as §1

[5] = test system: human liver cancer cell HepG2
Description: as §1

[6] = test system: human malignant melanoma cell A375; conditions: A-375
Description: as §1

[7] = test system: human non-small cell lung cancer cell A549
Description: as §1

[8] = test system: human osteosarcoma cell U2-OS; conditions: U2OS
Description: as §1

[9] = test system: human prostate cancer cell PC-3
Description: as §1

[10] = test system: pancreatic cancer cell PNAC-1
Description: as §1

| SMILES | IC50 (Hela) [µM] | IC50 [1] [µM] | IC50 [2] [µM] | IC50 [3] [µM] | IC50 [4] [µM] | IC50 (human glioma cell SNB-19) [µM] | IC50 [5] [µM] | IC50 [6] [µM] | IC50 [7] [µM] | IC50 [8] [µM] | IC50 [9] [µM] | IC50 [10] [µM] | inhibition at 40 µM (Hela; average proliferation inhibition rate at the dosage of 40 µM) [%] |
| --- | --- | --- | --- | --- | --- | --- | --- | --- | --- | --- | --- | --- | --- |
| O=C(O)c1cn(C2CC2)c2cc(N3CCNCC3)c(F)cc2c1=O [Ciprofloxacin] | > 100 | > 100 | > 100 | > 100 | > 100 | > 100 | > 100 | > 100 | > 100 | > 100 | > 100 | > 100 |  |
| O=C(O)c1cn(C2CC2)c2c(Cl)c(-c3ccc(S(=O)(=O)NCCCC(F)(F)F)nc3)c(F)cc2c1=O [Example 29, 8-chloro-1-cyclopropyl-6-fluoro-4-oxo-7-(6-(N-(4,4,4-trifluorobutyl)sulfamoyl)pyridin-3-yl)-1,4-dihydroquinolin-3-carboxylic acid] | 1 to 10 | 1 to 10 | 1 to 10 | 1 to 10 | 1 to 10 | 1 to 10 | 1 to 10 | 1 to 10 | 1 to 10 | 1 to 10 | 1 to 10 | 1 to 10 | ≥ 50 |
| CCN(CC)CCNC(=O)c1c(C)[nH]c(/C=C2\C(=O)Nc3ccc(F)cc32)c1C [Sunitinib] | 12 ± 2 | 20.3 ± 2 | 10.2 ± 3.8 | 20.7 ± 4.6 | 17.5 ± 2.4 | 6.5 ± 1.2 | 9.6 ± 2.1 | 19.2 ± 4.6 | 12.9 ± 10.2 | 4.7 ± 1.1 | 14.7 ± 6.6 | 22.4 ± 5.2 |  |
